How the values were obtained:
PpUGT91AH4 = experiment: LC-MS glucosyltransferase assay, varied trillin; type: biochemical, Paris polyphylla; settings: saturating UDP-glucose; assay buffer 50 mM Tris-HCl pH 8.0, 1 mM MgCl2, 37 °C
PpUGT91AH5 = experiment: LC-MS glucosyltransferase assay, varied trillin; type: biochemical, Paris polyphylla; settings: saturating UDP-glucose; assay buffer 50 mM Tris-HCl pH 8.0, 1 mM MgCl2, 37 °C

Km (PpUGT91AH4): 5.67 ± 0.84 mM
Km (PpUGT91AH5): 7.81 ± 1.2 mM
SMILES: C[C@@H]1CC[C@@]2(OC1)O[C@H]1C[C@H]3[C@@H]4CC=C5C[C@@H](O[C@@H]6O[C@H](CO)[C@@H](O)[C@H](O)[C@H]6O)CC[C@]5(C)[C@H]4CC[C@]3(C)[C@H]1[C@@H]2C [trillin]

— publication PMC11950731 (Synthetic and Systems Biotechnology, 2025)
